In EP4467141A1, “PYRAZOLO-QUINOLINES AS SELECTIVE INHIBITORS OF GENOTOXIC STRESS-INDUCED IKK/NF- KB PATHWAYS FOR CANCER THERAPY” (Max-Delbrück-Centrum für Molekulare Medizin in der …, priority 2023, dated 2024):

Tests used:
BMX = target: T1, BMX (Homo sapiens, UniProt P51813); test: Kinase panel study; format: biochemical; details: read-out: Percentage of inhibition; for inhibition at 1 µM: 1000nM; for inhibition at 10 µM: 10000nM
T1 construct: purchased Thermo Fisher Scientific
T1 sequence (P51813 1-675): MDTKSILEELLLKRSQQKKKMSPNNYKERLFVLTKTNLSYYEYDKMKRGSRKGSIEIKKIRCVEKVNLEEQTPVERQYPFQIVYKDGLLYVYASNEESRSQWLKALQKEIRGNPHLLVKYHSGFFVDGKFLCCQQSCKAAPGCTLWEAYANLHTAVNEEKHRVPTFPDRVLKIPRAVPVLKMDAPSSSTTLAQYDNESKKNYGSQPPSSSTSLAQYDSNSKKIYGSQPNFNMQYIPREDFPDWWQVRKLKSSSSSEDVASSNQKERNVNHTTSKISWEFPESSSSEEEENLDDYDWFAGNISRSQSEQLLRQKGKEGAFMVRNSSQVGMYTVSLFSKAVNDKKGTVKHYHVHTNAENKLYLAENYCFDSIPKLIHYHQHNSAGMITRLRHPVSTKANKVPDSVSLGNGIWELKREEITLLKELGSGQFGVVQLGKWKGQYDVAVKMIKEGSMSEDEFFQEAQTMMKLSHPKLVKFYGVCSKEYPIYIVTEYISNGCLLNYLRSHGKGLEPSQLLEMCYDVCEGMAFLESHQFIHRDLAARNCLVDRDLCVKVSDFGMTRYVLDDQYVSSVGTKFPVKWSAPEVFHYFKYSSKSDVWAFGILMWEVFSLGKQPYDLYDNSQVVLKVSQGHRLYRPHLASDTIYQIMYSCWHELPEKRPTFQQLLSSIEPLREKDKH
How it was run: (§1)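 Lead compounds and derivatives were profiled by ZLyte or Adapta in vitro kinase assays. Each value reports inhibition percentage at one of two concentrations, 1 µM or 10 µM.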

CDK18/cyclin Y = target: T2, CDK18/cyclin Y (Homo sapiens, UniProt Q07002); test: Kinase panel study; format: biochemical; details: read-out: Percentage of inhibition; for inhibition at 1 µM: 1000nM; for inhibition at 10 µM: 10000nM
T2 construct: purchased Thermo Fisher Scientific
How it was run: as §1

CDK7/cyclin H/MNAT1 = target: T3, CDK7/cyclin H/MNAT1 (Homo sapiens, UniProt P50613); test: Kinase panel study; format: biochemical; details: read-out: Percentage of inhibition; for inhibition at 1 µM: 1000nM; for inhibition at 10 µM: 10000nM
T3 construct: purchased Thermo Fisher Scientific
How it was run: as §1

ITK = target: T4, ITK (Homo sapiens, UniProt Q08881); test: Kinase panel study; format: biochemical; details: read-out: Percentage of inhibition; for inhibition at 1 µM: 1000nM; for inhibition at 10 µM: 10000nM
T4 construct: purchased Thermo Fisher Scientific
T4 sequence (Q08881 1-620): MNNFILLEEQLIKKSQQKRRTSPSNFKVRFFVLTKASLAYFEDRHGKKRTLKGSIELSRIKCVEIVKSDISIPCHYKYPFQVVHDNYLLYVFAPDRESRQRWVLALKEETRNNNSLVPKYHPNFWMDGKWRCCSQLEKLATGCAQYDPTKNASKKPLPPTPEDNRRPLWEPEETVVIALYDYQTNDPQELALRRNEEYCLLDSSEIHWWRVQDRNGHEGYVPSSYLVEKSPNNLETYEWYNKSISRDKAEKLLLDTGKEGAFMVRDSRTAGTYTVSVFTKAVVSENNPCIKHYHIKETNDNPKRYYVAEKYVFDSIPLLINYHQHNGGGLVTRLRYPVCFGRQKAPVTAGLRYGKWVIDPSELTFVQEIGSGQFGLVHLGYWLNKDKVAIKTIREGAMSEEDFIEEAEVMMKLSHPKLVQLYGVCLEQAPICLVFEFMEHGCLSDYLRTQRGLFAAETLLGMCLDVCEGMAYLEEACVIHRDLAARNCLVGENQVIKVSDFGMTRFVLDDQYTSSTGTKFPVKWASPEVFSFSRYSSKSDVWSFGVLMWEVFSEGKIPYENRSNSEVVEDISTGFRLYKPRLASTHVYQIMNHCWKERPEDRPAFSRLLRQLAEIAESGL
How it was run: as §1

BIRC3 = test: RT-qPCR mRNA expression analysis of BIRC3 in U2-OS cells after irradiation; format: cell-based; details: 10 µM, 8 hours after 10 Gy irradiation
[1] = HPLC of media supernatant from U2-OS cell culture (degradation); format: physicochemical; details: 10µM

T3 sequence (P50613 whole entry): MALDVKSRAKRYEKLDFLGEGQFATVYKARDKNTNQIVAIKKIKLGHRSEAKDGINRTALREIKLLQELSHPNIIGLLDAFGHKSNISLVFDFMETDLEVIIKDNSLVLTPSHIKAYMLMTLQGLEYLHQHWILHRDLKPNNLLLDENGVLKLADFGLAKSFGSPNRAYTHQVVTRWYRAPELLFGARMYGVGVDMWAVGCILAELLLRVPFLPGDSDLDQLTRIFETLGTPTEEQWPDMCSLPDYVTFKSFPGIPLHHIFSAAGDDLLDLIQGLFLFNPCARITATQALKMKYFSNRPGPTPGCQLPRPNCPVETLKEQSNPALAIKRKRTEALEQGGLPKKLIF
T3 sequence (P51946 whole entry partner): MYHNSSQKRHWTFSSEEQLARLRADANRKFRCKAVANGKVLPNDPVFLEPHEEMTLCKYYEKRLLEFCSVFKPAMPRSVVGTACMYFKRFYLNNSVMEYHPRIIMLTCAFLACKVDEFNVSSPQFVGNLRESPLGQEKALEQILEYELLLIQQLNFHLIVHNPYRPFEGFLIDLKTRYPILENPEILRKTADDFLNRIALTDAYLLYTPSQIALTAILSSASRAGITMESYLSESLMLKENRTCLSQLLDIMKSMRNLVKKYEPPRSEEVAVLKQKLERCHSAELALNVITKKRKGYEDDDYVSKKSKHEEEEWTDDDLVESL
T3 sequence (P51948 whole entry partner): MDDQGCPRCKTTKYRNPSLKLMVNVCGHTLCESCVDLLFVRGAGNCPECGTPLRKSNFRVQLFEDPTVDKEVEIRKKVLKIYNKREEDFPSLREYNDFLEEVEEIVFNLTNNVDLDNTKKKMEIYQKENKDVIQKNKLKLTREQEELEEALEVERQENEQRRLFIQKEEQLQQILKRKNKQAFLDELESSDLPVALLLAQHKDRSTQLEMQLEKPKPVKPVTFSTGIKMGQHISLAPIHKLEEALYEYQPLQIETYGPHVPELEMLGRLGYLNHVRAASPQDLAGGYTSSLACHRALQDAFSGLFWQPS
T2 sequence (Q07002 whole entry): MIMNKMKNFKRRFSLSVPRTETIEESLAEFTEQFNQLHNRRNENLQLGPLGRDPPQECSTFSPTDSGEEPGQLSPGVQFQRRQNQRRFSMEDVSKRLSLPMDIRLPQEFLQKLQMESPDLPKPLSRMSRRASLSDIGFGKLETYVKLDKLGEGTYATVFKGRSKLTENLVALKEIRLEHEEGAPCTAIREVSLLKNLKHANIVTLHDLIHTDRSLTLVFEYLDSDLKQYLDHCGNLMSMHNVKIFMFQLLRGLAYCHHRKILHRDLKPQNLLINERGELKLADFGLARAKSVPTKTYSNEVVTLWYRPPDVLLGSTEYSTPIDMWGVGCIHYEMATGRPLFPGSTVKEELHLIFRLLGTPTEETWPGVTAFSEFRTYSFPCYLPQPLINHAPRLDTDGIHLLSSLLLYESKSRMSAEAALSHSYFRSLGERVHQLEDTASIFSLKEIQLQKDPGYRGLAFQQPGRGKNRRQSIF
T2 sequence (Q8ND76 whole entry partner): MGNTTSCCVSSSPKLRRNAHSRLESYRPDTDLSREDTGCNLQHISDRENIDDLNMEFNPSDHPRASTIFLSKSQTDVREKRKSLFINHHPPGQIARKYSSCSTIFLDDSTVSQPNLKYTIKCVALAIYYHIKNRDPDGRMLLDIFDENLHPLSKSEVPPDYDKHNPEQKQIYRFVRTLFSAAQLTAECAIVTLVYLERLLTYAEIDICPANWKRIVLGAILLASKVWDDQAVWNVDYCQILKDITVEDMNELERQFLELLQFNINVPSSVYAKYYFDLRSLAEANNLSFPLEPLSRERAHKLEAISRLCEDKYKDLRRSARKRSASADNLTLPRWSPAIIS

SMILES | inhibition at 1 µM (BMX) [%] | inhibition at 10 µM (BMX) [%] | inhibition at 1 µM (CDK18/cyclin Y) [%] | inhibition at 10 µM (CDK18/cyclin Y) [%] | inhibition at 1 µM (CDK7/cyclin H/MNAT1) [%] | inhibition at 10 µM (CDK7/cyclin H/MNAT1) [%] | inhibition at 1 µM (ITK) [%] | inhibition at 10 µM (ITK) [%] | upregulation of anti-apoptotic NF-κB target gene BIRC3 (BIRC3) | degradation in cell culture conditions [1]
COc1ccc2c(c1OC)c(=O)n1c3ccc(O)cc3c3ccnc2c31 [MW01, 5-Hydroxy-10,11-dimethoxy-9H-benzo[c]indolo[3,2,1-ij][1,5]naphthyridin-9-one] | -8 | 6 | 5 | 15 | 3 | 4 | 0 | -2 | abolished | minimal degradation
COc1ccc2cc3c(N)nn(C(=O)c4cccc(N(C)C)c4)c3nc2c1 [MW05, (3-Amino-7-methoxypyrazolo[3,4-b]quinolin-1-yl)-[3-(dimethylamino)phenyl]methanone] | -10 | 4 | 13 | 55 | 2 | 29 | -10 | -6 | abolished | minimal degradation
